One assay concerns the target type 2 MAP (Homo sapiens, UniProt P50579). In words: Coupled MAP/dipeptidyl peptidase IV assay, release of p-nitroanilide at 405 nm, type 2 MAP inhibition. Type of assay: biochemical. Here is the method:
(§1) MAP activity was next determined by monitoring the release of p-nitroanilide in a microtiter format. Purified type 1 MAP or type 2 MAP (0.6 μg) and/or 0.001 unit of dipeptidyl peptidase IV was added in 47 μl of buffer H (10 mM Hepes, pH 7.4, 10% glycerol), containing 0.1 M KCl and 0.1 mM of Co^2+ in wells of a 96-well microtiter plate. After incubating at 37° C. for 5 min, 2 mM of Met-Gly-Pro-p-nitroanilide was added to the mixture to start the reaction. A microtiter plate reader, set at 405 nm to detect released p-nitroanilide, was used to record the progress of the reactions. […] These curves are highly reproducible and linear, with correlation coefficients (r^2)>0.98.
(§2) After incubating the inhibitor with MAP solutions at 37° C. for 10 min, 2 mM of Met-Gly-Pro-p-nitroanilide was added to start the reaction, and the release of p-nitroanilide was monitored with a microtiter plate reader at 405 nm as described above. The effect of fumigillin on dipeptidyl peptidase IV activity was also tested by using Gly-Pro-p-nitroanilide as the substrate.

A further assay deals with type 1 MAP (Saccharomyces cerevisiae, UniProt Q01662). Briefly: Coupled MAP/dipeptidyl peptidase IV assay, release of p-nitroanilide at 405 nm, type 1 MAP inhibition. The assay is classed as biochemical, yeast. Here is the method:
as §1, §2

The target of another assay is dipeptidyl peptidase IV (Homo sapiens, UniProt P27487). In words: Dipeptidyl peptidase IV control assay with Gly-Pro-p-nitroanilide as substrate. The assay is classed as biochemical. The procedure: as §1, §2
Where [1] appears, read: FIG. 3 legend, dipeptidyl peptidase IV and Met-Gly-Pro-p-nitroanilide, no concentration stated.

Sequence of dipeptidyl peptidase IV (P27487 whole entry, species assumed): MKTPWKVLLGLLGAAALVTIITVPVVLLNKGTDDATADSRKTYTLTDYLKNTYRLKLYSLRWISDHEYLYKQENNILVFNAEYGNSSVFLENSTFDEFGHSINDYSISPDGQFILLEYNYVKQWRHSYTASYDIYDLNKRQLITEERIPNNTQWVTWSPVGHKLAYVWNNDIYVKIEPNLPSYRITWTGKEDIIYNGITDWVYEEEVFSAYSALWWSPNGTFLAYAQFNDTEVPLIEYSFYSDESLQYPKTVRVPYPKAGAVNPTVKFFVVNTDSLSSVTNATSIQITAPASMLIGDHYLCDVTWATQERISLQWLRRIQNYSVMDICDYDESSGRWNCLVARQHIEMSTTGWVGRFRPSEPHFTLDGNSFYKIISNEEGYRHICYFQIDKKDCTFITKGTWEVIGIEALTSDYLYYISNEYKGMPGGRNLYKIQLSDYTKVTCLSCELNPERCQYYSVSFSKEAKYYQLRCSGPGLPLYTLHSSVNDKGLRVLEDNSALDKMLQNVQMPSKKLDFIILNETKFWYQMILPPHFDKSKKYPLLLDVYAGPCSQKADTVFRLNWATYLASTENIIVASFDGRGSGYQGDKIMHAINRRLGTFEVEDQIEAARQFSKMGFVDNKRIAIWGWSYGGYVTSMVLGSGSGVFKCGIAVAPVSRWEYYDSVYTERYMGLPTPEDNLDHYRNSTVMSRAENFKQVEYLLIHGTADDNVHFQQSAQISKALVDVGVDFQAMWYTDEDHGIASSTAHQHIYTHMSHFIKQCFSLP
Sequence of type 1 MAP (Q01662 whole entry): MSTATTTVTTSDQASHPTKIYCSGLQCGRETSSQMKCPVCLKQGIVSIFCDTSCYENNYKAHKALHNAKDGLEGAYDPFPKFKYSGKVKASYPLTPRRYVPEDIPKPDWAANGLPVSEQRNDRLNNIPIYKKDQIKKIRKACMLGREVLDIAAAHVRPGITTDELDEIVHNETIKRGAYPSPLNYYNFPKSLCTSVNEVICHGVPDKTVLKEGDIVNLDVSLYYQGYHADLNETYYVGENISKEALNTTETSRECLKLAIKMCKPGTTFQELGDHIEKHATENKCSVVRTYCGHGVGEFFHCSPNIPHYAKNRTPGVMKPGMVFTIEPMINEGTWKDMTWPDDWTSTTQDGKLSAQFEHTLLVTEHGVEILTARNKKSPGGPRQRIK
Sequence of type 2 MAP (P50579 whole entry): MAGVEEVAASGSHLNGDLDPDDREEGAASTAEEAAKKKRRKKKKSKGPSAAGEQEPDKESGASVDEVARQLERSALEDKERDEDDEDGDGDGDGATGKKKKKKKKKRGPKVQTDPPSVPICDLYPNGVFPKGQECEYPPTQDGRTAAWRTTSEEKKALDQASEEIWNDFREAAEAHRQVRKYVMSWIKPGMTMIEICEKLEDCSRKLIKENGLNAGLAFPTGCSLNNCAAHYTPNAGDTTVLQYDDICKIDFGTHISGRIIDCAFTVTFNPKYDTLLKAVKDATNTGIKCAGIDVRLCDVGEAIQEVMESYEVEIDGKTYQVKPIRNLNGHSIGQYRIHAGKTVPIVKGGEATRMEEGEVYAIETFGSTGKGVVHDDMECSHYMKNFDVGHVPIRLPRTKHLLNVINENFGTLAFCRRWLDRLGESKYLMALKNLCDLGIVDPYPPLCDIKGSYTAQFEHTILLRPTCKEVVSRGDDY

As for `CO[C@@H]1[C@H](OC(=O)/C=C/C=C/C=C/C=C/C(=O)O)CC[C@]2(CO2)[C@H]1[C@@]1(C)O[C@@H]1CC=C(C)C` [fumagillin], on type 2 MAP (20 nM inhibitor, 10 min preincubation at 37° C., 2 mM Met-Gly-Pro-p-nitroanilide, FIG. 3), the “type 2 MAP activity” value is “completely inhibited”. Besides, the “release of p-nitroanilide when type 2 MAP was used” value on type 2 MAP (setting [1]) is reported as “strongly inhibited”. Also, the “type 1 MAP activity” value on type 1 MAP (50 nM inhibitor, 10 min preincubation at 37° C., 2 mM Met-Gly-Pro-p-nitroanilide, FIG. 3) is recorded as “remained unaffected”. Also, the “release of p-nitroanilide when type 1 MAP was used” value on type 1 MAP (setting [1]) was “not”. Besides, on dipeptidyl peptidase IV (50 nM inhibitor, Gly-Pro-p-nitroanilide as substrate, FIG. 3), the “dipeptidyl peptidase IV activity” value is listed as “remained unaffected”. Further, the “release of p-nitroanilide when dipeptidyl peptidase IV was used with Gly-Pro-p-nitroanilide” value on dipeptidyl peptidase IV (FIG. 3 legend, no concentration stated) is recorded as “not”.

(Values after patent publication US6593454B2, “Methods for identifying inhibitors of methionine aminopeptidases” (Saint Louis University, priority 1999, dated 2003).)
